Converted amounts (≈) assume the structure as drawn. The source made the active and inactive calls.

For five molecules, IC50, MIC and Activity results are on record in ChEMBL document CHEMBL1255305, “Affinity of doripenem and comparators to penicillin-binding proteins in Escherichia coli and Pseudomonas aeruginosa” (Antimicrob Agents Chemother, 2008).

Assay [1] can be described thus: Inhibition of Bocillin FL binding to PBP1B in Pseudomonas aeruginosa PAO1 membranes.
Assay [2] can be described thus: Inhibition of Bocillin FL binding to PBP2 in Pseudomonas aeruginosa PAO1 membranes.
A short description of assay [3]: Inhibition of Bocillin FL binding to PBP5/6 in Pseudomonas aeruginosa 27853 membranes.
The nature of assay [4]: Inhibition of Bocillin FL binding to PBP1A in Pseudomonas aeruginosa PAO1 membranes.
Assay [5] in a line: Inhibition of Bocillin FL binding to PBP3 in Escherichia coli MC4100 membranes. The format is cell membranes.
Assay [6] can be described thus: Inhibition of Bocillin FL binding to PBP1B in Pseudomonas aeruginosa 27853 membranes.
A short description of assay [7]: Inhibition of Bocillin FL binding to PBP4 in Pseudomonas aeruginosa PAO1 membranes.
Assay [8] in a line: Inhibition of Bocillin FL binding to PBP3 in Pseudomonas aeruginosa PAO1 membranes.
Assay [9] in a line: Inhibition of Bocillin FL binding to PBP3 in Pseudomonas aeruginosa 27853 membranes.
A short description of assay [10]: Inhibition of Bocillin FL binding to PBP4 in Escherichia coli MC4100 membranes. The format is cell membranes.
Assay [11] can be described thus: Inhibition of Bocillin FL binding to PBP1B in Escherichia coli MC4100 membranes. The format is cell membranes.
The nature of assay [12]: Inhibition of Bocillin FL binding to PBP1A in Escherichia coli MC4100 membranes. The format is cell membranes.
Assay [13] can be described thus: Inhibition of Bocillin FL binding to PBP2 in Pseudomonas aeruginosa 27853 membranes.
Assay [14] in a line: Inhibition of Bocillin FL binding to PBP1A in Pseudomonas aeruginosa 27853 membranes.
Assay [15] is described as follows: Inhibition of Bocillin FL binding to PBP5 in Escherichia coli MC4100 membranes. The format is cell membranes.
Assay [16] can be described thus: Inhibition of Bocillin FL binding to PBP2 in Escherichia coli MC4100 membranes. It counts as cell membranes.
A short description of assay [17]: Inhibition of Bocillin FL binding to PBP5/6 in Pseudomonas aeruginosa PAO1 membranes.
Assay [18] can be described thus: Inhibition of Bocillin FL binding to PBP4 in Pseudomonas aeruginosa 27853 membranes.
Assay [19] is described as follows: Inhibition of Bocillin FL binding to PBP6 in Escherichia coli MC4100 membranes. It counts as cell membranes.
Assay [20] deals with Pseudomonas aeruginosa. The assay is described as follows: Antimicrobial activity against Pseudomonas aeruginosa PAO1 by CLSI protocol based broth microdilution method. It counts as functional. For orientation: Dilution methods test growth across graded concentrations, often in twofold steps.
Assay [21] concerns Escherichia coli. Briefly: Antimicrobial activity against Escherichia coli MC4100 by CLSI protocol based broth microdilution method. It counts as functional.
Assay [22] deals with Pseudomonas aeruginosa. Briefly: Antimicrobial activity against Pseudomonas aeruginosa 27853 by CLSI protocol based broth microdilution method. It counts as functional.
Assay [23] concerns Pseudomonas aeruginosa. Briefly: Induction of morphological changes in Pseudomonas aeruginosa 27853 assessed as increase in cell length at antimicrobial MIC after 240 mins by microscopy. The format is functional, organism-based.
For assay [24], the system named is Pseudomonas aeruginosa. The assay is described as follows: Induction of morphological changes in Pseudomonas aeruginosa 27853 assessed as induction of sphere formation at antimicrobial MIC after 60 mins by microscopy. It counts as functional, organism-based.
Assay [25] has as its system Escherichia coli. Briefly: Induction of morphological changes in Escherichia coli MC4100 assessed as induction of sphere formation at antimicrobial MIC after 4 hrs by microscopy. It counts as functional, organism-based.
Assay [26] has as its system Pseudomonas aeruginosa. The assay is described as follows: Induction of morphological changes in Pseudomonas aeruginosa 27853 assessed as induction of sphere formation at antimicrobial MIC after 240 mins by microscopy. The format is functional, organism-based.
Assay [27] relates to Pseudomonas aeruginosa. The assay is described as follows: Induction of morphological changes in Pseudomonas aeruginosa 27853 assessed as increase in cell length at antimicrobial MIC after 60 mins by microscopy. The format is functional, organism-based.

Consider `C[C@H]1[C@H](NC(=O)/C(=N\OC(C)(C)C(=O)O)c2csc(N)n2)C(=O)N1S(=O)(=O)O` [AZTREONAM], for which the IC50 in assay [1] is 2 µg/mL (≈ 4.59 µM); in assay [2], 16 µg/mL (≈ 36.7 µM); in assay [3] it was above 4 µg/mL; in assay [4] it was 2 µg/mL (≈ 4.59 µM); in assay [5], 0.03 µg/mL (≈ 0.0689 µM); in [6], 2 µg/mL (≈ 4.59 µM). The IC50 in assay [7] is 16 µg/mL (≈ 36.7 µM); in assay [8], 0.03 µg/mL (≈ 0.0689 µM); in assay [9], below 0.02 µg/mL; in assay [10], above 8 µg/mL; in [11], above 8 µg/mL; in assay [12] it was above 8 µg/mL. Also, the IC50 in assay [13] is 4 µg/mL (≈ 9.19 µM); in assay [14], 2 µg/mL (≈ 4.59 µM); in assay [15], above 8 µg/mL; in assay [16] it was above 8 µg/mL; in assay [17] it was above 16 µg/mL; in assay [18], above 4 µg/mL. The IC50 in assay [19] was above 8 µg/mL.

On to `CC(C)(O/N=C(\C(=O)N[C@@H]1C(=O)N2C(C(=O)[O-])=C(C[n+]3ccccc3)CS[C@H]12)c1csc(N)n1)C(=O)O` [CEFTAZIDIME], for which the IC50 in assay [1] was 3 µg/mL (≈ 5.49 µM); in assay [2] it was above 32 µg/mL; in assay [3], above 4 µg/mL; in assay [4] it was 0.2 µg/mL (≈ 0.366 µM); in assay [5] it was 0.07 µg/mL (≈ 0.128 µM); in assay [6], 1.6 µg/mL (≈ 2.93 µM). Also, the IC50 was 2 µg/mL (≈ 3.66 µM) in assay [7]; 0.1 µg/mL (≈ 0.183 µM) in assay [8]; 0.1 µg/mL (≈ 0.183 µM) in assay [9]; above 4 µg/mL in assay [10]; 1.1 µg/mL (≈ 2.01 µM) in assay [11]; 1.1 µg/mL (≈ 2.01 µM) in assay [12]. Besides, the IC50 in assay [13] was 4 µg/mL (≈ 7.32 µM); in assay [14], 0.3 µg/mL (≈ 0.549 µM); in assay [15] it was above 4 µg/mL; in assay [16], 4 µg/mL (≈ 7.32 µM); in assay [17], above 32 µg/mL; in assay [18], 2 µg/mL (≈ 3.66 µM). Also, the IC50 in assay [19] was above 4 µg/mL. Also, the results for the minimum inhibitory concentration (MIC) in the assay with Pseudomonas aeruginosa [20], in the assay with Escherichia coli [21] and against Pseudomonas aeruginosa [22] were 1 µg/mL (≈ 1.83 µM), 0.12 µg/mL (≈ 0.22 µM) and 1 µg/mL (≈ 1.83 µM), respectively.

Consider `C[C@@H](O)[C@H]1C(=O)N2C(C(=O)O)=C(S[C@@H]3CN[C@H](CNS(N)(=O)=O)C3)[C@H](C)[C@H]12` [DORIPENEM], for which the IC50 in assay [1] was 0.6 µg/mL (≈ 1.43 µM); in assay [2], 0.06 µg/mL (≈ 0.143 µM); in [3], above 4 µg/mL; in [4] it was 0.5 µg/mL (≈ 1.19 µM); in assay [5] it was 2 µg/mL (≈ 4.76 µM); in [6], 0.6 µg/mL (≈ 1.43 µM). Moreover, the IC50 in assay [7] came out at 0.008 µg/mL (≈ 0.019 µM); in assay [8], 0.07 µg/mL (≈ 0.166 µM); in assay [9] it was 0.06 µg/mL (≈ 0.143 µM); in assay [10], 0.02 µg/mL (≈ 0.0476 µM); in assay [11] it was 1.2 µg/mL (≈ 2.85 µM); in assay [12], 1.2 µg/mL (≈ 2.85 µM). The IC50 is 0.04 µg/mL (≈ 0.0951 µM) in assay [13]; 0.8 µg/mL (≈ 1.9 µM) in [14]; 4 µg/mL (≈ 9.51 µM) in [15]; 0.008 µg/mL (≈ 0.019 µM) in assay [16]; 8 µg/mL (≈ 19 µM) in assay [17]; below 0.008 µg/mL in assay [18]. In addition, in assay [19], the IC50 is 1 µg/mL (≈ 2.38 µM). Also, the MIC turned out to be 0.25 µg/mL (≈ 0.595 µM) in the assay on Pseudomonas aeruginosa [20], 0.03 µg/mL (≈ 0.0713 µM) in the assay with Escherichia coli [21] and 0.25 µg/mL (≈ 0.595 µM) against Pseudomonas aeruginosa [22]. Further, the outcome with Pseudomonas aeruginosa [23], in the assay on Pseudomonas aeruginosa [24] and with Escherichia coli [25] was Active.

Take `C[C@@H](O)[C@H]1C(=O)N2C(C(=O)O)=C(SCCNC=N)C[C@H]12` [IMIPENEM ANHYDROUS]: the IC50 in assay [1] is 0.2 µg/mL (≈ 0.668 µM); in assay [2] it was 0.1 µg/mL (≈ 0.334 µM); in assay [3], 1 µg/mL (≈ 3.34 µM); in assay [4] it was 0.1 µg/mL (≈ 0.334 µM); in [5] it was 8 µg/mL (≈ 26.7 µM); in assay [6], 0.1 µg/mL (≈ 0.334 µM). Further, the IC50 was 0.008 µg/mL (≈ 0.0267 µM) in assay [7]; 0.09 µg/mL (≈ 0.301 µM) in [8]; 0.3 µg/mL (≈ 1 µM) in assay [9]; 0.01 µg/mL (≈ 0.0334 µM) in assay [10]; 0.4 µg/mL (≈ 1.34 µM) in assay [11]; 0.5 µg/mL (≈ 1.67 µM) in [12]. In addition, the IC50 in [13] was 0.1 µg/mL (≈ 0.334 µM); in assay [14] it was 0.1 µg/mL (≈ 0.334 µM); in [15], 0.4 µg/mL (≈ 1.34 µM); in assay [16], 0.008 µg/mL (≈ 0.0267 µM); in assay [17] it was 2 µg/mL (≈ 6.68 µM); in assay [18], below 0.008 µg/mL. The IC50 in [19] amounted to 0.1 µg/mL (≈ 0.334 µM). For the same molecule, the MIC in the assay on Pseudomonas aeruginosa [20] turned out to be 1 µg/mL (≈ 3.34 µM); in the assay on Escherichia coli [21], 0.25 µg/mL (≈ 0.835 µM); against Pseudomonas aeruginosa [22], 2 µg/mL (≈ 6.68 µM). For the same molecule, the outcome with Pseudomonas aeruginosa [26] and in the assay with Escherichia coli [25] was Active.

`C[C@@H](O)[C@H]1C(=O)N2C(C(=O)O)=C(S[C@@H]3CN[C@H](C(=O)N(C)C)C3)[C@H](C)[C@H]12` [MEROPENEM]: the IC50 in [1] was 0.5 µg/mL (≈ 1.3 µM); in assay [2], 0.05 µg/mL (≈ 0.13 µM); in assay [3], above 4 µg/mL; in [4], 0.5 µg/mL (≈ 1.3 µM); in [5], 0.6 µg/mL (≈ 1.56 µM); in assay [6] it was 0.6 µg/mL (≈ 1.56 µM). The IC50 in [7] amounted to 0.008 µg/mL (≈ 0.0209 µM); in assay [8] it was 0.08 µg/mL (≈ 0.209 µM); in [9], 0.08 µg/mL (≈ 0.209 µM); in assay [10], 0.02 µg/mL (≈ 0.0522 µM); in assay [11], 1.3 µg/mL (≈ 3.39 µM); in assay [12] it was 1.7 µg/mL (≈ 4.43 µM). The IC50 was found to be 0.06 µg/mL (≈ 0.156 µM) in assay [13]; 0.6 µg/mL (≈ 1.56 µM) in assay [14]; 4 µg/mL (≈ 10.4 µM) in assay [15]; 0.008 µg/mL (≈ 0.0209 µM) in assay [16]; 16 µg/mL (≈ 41.7 µM) in assay [17]; 0.02 µg/mL (≈ 0.0522 µM) in assay [18]. Also, the IC50 in assay [19] was found to be 0.03 µg/mL (≈ 0.0782 µM). The MIC turned out to be 0.5 µg/mL (≈ 1.3 µM) against Pseudomonas aeruginosa [20], 0.03 µg/mL (≈ 0.0782 µM) in the assay on Escherichia coli [21] and 0.25 µg/mL (≈ 0.652 µM) with Pseudomonas aeruginosa [22]. The result with Pseudomonas aeruginosa [23], in the assay on Pseudomonas aeruginosa [27] and in the assay on Escherichia coli [25] was Active.

Broadly, the IC50 is the midpoint of a concentration-inhibition curve. A lower IC50 goes with higher potency. A word on the MIC: it is the smallest concentration in the dilution series that meets the test's criterion for growth inhibition.
